# Measurements as given in EP1100483B1, “GLUCOCORTICOID-SELECTIVE ANTI-INFLAMMATORY AGENTS” (Abbott Laboratories, priority 1998, dated 2000).
# Biological target: T1, human androgen receptor (AR) (Homo sapiens, UniProt P10275)
# T1 construct: The full length human androgen receptor (AR) was derived from cDNA expressed in a baculovirus expression system; purchased Ligand Pharmaceuticals (San Diego, CA); host or cells: SF21 insect cells (baculovirus)
# T1 sequence (P10275 1-920): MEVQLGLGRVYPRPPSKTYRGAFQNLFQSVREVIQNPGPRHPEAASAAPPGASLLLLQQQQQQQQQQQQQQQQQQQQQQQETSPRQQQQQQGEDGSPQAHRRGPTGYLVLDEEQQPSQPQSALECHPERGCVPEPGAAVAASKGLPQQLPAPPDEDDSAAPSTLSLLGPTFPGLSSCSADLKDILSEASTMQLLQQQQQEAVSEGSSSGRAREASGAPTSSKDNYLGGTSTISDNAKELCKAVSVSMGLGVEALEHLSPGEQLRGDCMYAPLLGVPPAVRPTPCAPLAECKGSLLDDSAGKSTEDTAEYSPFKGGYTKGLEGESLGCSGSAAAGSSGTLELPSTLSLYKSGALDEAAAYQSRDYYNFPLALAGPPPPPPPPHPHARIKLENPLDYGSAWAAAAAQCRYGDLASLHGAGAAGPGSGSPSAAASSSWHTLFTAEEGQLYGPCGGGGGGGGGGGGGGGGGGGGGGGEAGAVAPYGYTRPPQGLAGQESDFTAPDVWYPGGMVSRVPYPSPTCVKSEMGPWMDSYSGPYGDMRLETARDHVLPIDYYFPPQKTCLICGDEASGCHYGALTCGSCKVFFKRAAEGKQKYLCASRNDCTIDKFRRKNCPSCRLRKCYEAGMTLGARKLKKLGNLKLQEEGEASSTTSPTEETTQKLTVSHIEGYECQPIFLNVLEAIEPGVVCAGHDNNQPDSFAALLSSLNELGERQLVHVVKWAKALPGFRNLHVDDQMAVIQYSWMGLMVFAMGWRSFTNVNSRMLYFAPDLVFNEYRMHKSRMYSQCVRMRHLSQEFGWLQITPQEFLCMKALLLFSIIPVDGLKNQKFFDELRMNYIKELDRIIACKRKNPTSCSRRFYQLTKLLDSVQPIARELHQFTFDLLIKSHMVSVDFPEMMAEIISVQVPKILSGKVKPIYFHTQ
# Assay: human androgen receptor (AR) cytosol binding assay, [3H]-dihydrotestosterone competition
# Settings: 1-2 nM [3H]-DHT, 4 °C for 18 hours; Cheng-Prusoff
# From the text: For human androgen receptor (AR) cytosol binding assays, [^3H]-dihydrotestosterone (DHT) (120-140 Ci/mmol) was purchased from Amersham Life Science (Arlington Heights, IL), DHT was purchased from Sigma Chemical Co. (St. Louis, MO), CHAPS and DTT were purchased from Boehringer Mannheim GmbH (W. Germany), and all other reagents were purchased from Sigma. The full length human androgen receptor (AR) was derived from cDNA expressed in a baculovirus expression system from Ligand Pharmaceuticals (San Diego, CA). The methods concerning growth, purification, and assays of recombinant viruses followed the protocol outlined by Summers, M.D., Smith, G.E., A Manual of Methods for Baculovirus Vectors and Insect Cell Culture Procedures, Tex. Agric. Exp. Stn. [Bull], 1987, No. 155, hereby incorporated by reference. The recombinant plasmids were cotransfected into SF21 cells with wild type AcNPV DNA, and the recombinant viruses were plaque purified.
# A receptor extract was prepared from the baculovirus system , and aliquots were stored at -80 °C until used. Typical protein concentrations for these extracts were between 10 and 20 mg/ml. Stock solutions of DHT or other competing compounds were prepared as 5 mM stock solutions in either 100% ethanol or DMSO and serial dilutions were carried out in 1:1 DMSO-ethanol. The assay buffer consisted of the following: 25 mM sodium phosphate, 10 mM potassium fluoride, 10 mM sodium molybdate, 10% glycerol, 1.5 mM EDTA, 2 mM DTT, 2 mM CHAPS and 1 mM PMSF, pH=7.4 at room temperature.
# Receptor assays were performed with a final volume of 250 µL containing from 50-75 µg of extract protein, plus 1-2 nM [^3H]-DHT and varying concentrations of competing ligand (0-10-5 M). Assays were set up using a 96-well minitube system and incubations were carried out at 4 °C for 18 hours. Equilibrium under these conditions of buffer and temperature was achieved by 6-8 hours. Nonspecific binding was defined as that binding remaining in the presence of 1000 nM unlabeled DHT. At the end of the incubation period, 200 µL of 6.25% hydroxyapatite was added in wash buffer (binding buffer in the absence of DTT and PMSF). Specific ligand binding to receptor was determined by a hydroxyapatite-binding assay according to the protocol outlined by Wecksler, W.R., Norman, A.W., An Hydroxylapatite Batch Assay for the Quantitation of 1α, 25-Dihydroxyvitamin D3-Receptor Complexes, Anal. Biochem. 1979, 92, 314-323, hereby incorporated by reference. Hydroxyapatite absorbs the receptor-ligand complex, allowing for the separation of bound from free radiolabeled ligand. The mixture was vortexed, incubated for 10 minutes at 4 °C, centrifuged, and the supernatant was removed. The hydroxyapatite pellet was washed twice more with the wash buffer. The amount of receptor-ligand complex was determined by liquid scintillation counting of the hydroxyapatite pellet after the addition of […] EcoScint A scintillation cocktail from National Diagnostics (Atlanta, GA.).
# After correcting for nonspecific binding, IC50 values were determined. […] The IC50 values were determined graphically from a log-logit plot of the data. […] Standards are included in each assay and resulting Ki values are determined by use of a modified Cheng-Prusoff equation and used to calculate Ki values for "unknown analogs" outlined by DeBlasi, A., O'Reilly, K., Motulsky, H.J., Calculating Receptor Number from Binding Experiments Using Same Compound As Radioligand and Competitor, TIPS 1989, 10, 227-229, hereby incorporated by reference.
row,SMILES,Ki [nM]
1,"CNc1ccc(C(c2ccc(NC)cc2)c2cc(Cl)ccc2Cl)cc1 [Example 27, 4',4"" bis(methylamino)-2,5-dichlorotriphenylmethane]",3240
2,"CNc1ccc(C(c2ccc(N(C)CCOC(C)=O)cc2)c2cc([N+](=O)[O-])ccc2Cl)cc1 (stereo not shown) [Example 49, 4'-methylamino-4""-(N-(2-acetoxyethyl)-N-methylamino)-2-chloro-5-nitrotriphenylmethane]",1040
3,"CNc1ccc(C(c2ccc(N(C)C)cc2)c2cc([N+](=O)[O-])ccc2Cl)cc1 (stereo not shown) [Example 39, 4'-dimethylamino-4""-methylamino-2-chloro-5-nitrotriphenylmethane]",3730
4,"CC(=O)OCCN(C)c1ccc(C(c2ccc(N(C)CCOC(C)=O)cc2)c2cc([N+](=O)[O-])ccc2Cl)cc1 [Example 31, 4',4"" bis(N-(2-acetoxyethyl) N-methylamino)-2-chloro-5-nitrotriphenylmethane]",3520
5,"CN(C)c1ccc(C(c2ccc(N(C)C)cc2)c2cc([N+](=O)[O-])ccc2Cl)cc1 [Example 1, 4',4"" bis(dimethylamino)-2-chloro-5-nitrotriphenylmethane]",3730
6,"CNc1ccc(C(c2ccc(NC)cc2)c2cc([N+](=O)[O-])ccc2Cl)cc1 [Example 23, 4',4"" bis(methylamino)-2-chloro-5-nitrotriphenylmethane]",4260
7,"CN(C)c1ccc(C(Oc2ccccc2)c2cc([N+](=O)[O-])ccc2Cl)cc1 (stereo not shown) [Example 52, phenyl-[(4'-dimethylaminophenyl)-(2-chloro-5-nitrophenyl)methyl] ether]",> 10000
8,"CN(C)c1ccc(C(c2ccc(N(C)CCO)cc2)c2cc([N+](=O)[O-])ccc2Cl)cc1 (stereo not shown) [Example 42, 4'-dimethylamino-4""-(N-methyl-N-(2-hydroxyethyl)amino)-2-chloro-5-nitrotriphenylmethane]",2800
9,"CC(=O)OCCN(C)c1ccc(C(c2ccc(N(C)C)cc2)c2cc([N+](=O)[O-])ccc2Cl)cc1 (stereo not shown) [Example 51, 4'-dimethylamino-4""-(N-methyl-N-(2-acetoxyethyl)amino)-2-chloro-5-nitrotriphenylmethane]",> 10000
10,"CN(C)c1ccc(C(c2ccc(N(C)C)cc2)c2cc(Cl)ccc2Cl)cc1 [Example 24, 4',4"" bis(dimethylamino)-2,5-dichlorotriphenylmethane]",3730
11,"CN(CCO)c1ccc(C(c2ccc(N(C)CCO)cc2)c2cc([N+](=O)[O-])ccc2Cl)cc1 [Example 32, 4',4"" bis(N-(2-hydroxyethyl) N-methylamino)-2-chloro-5-nitrotriphenylmethane]",3520
12,"O=[N+]([O-])c1ccc(Cl)c(C(c2ccc(NCc3ccccc3)cc2)c2ccc(NCc3ccccc3)cc2)c1 [Example 36, 4',4"" bis(N-benzylamino)-2-chloro-5-nitrotriphenylmethane]",3730
13,"CN(C)c1ccc(C(Sc2ccccc2)c2cc([N+](=O)[O-])ccc2Cl)cc1 (stereo not shown) [Example 54, phenyl-[(4'-dimethylaminophenyl)-(2-chloro-5-nitrophenyl)methyl]thioether]",3730
